Measurements reported in patent US8362249B2, “CXCR3 receptor antagonists” (Boehringer Ingelheim International GmbH, priority 2009, dated 2013).

Molecular target: CXCR3 (Macaca fascicularis, UniProt A0A2K5UV19)
Assay: functional cellular assay measuring calcium flux in CXCR3 transfected cells (block of CXCR3/IP-10 interaction)
Type: cell-based
Settings: IP-10 induced intracellular calcium flux; Cyno-CHO cells stably expressing recombinant CXCR3 and G-alpha-16
Description: Compounds are assessed for the ability to block the interaction of CXCR3 and IP-10 in a functional cellular assay measuring calcium flux in CXCR3 transfected cells.
Cyno-CHO cells, stably expressing recombinant CXCR3 and G-alpha-16 are grown in F12 medium (Mediatech #45000-360) supplemented with 10% (V/V) FBS (Mediatech #35-01500), 1% Geneticin (Invitrogen #10131-027) and 0.2% Zeocin (Invitrogen #R250-05). The cells are spun down and re-suspended in growth media to a concentration of 4.8 E5 cells/mL. 25 microL of cell suspension is added to each well of a BD-384-well TC treated plate, providing 12,000 cells/well. The plate is incubated at 37° C./5% CO2 overnight. On the day of the assay, the plates are removed, the media is flicked out and 25 microL of Ca-4 dye in assay buffer (HBSS, 10 mM HEPES ph 7.4), containing 2 mM probenacid is added to each well. The cell assay plates are then incubated at 37° C./5% CO2 for one hour.
Test compounds are dissolved in DMSO and diluted to 1.045 mM in DMSO. Just prior to assay, 2.75 microL of appropriately diluted test compound are added to each well of a 384 well plate containing 45 microL of HBSS buffer. After mixing, 5 microL of diluted compound are added to each well of the cell assay plate for a final assay concentration of 10 microM. The plate is incubated at room temperature for 15 min. 10 microL of IP-10 stock solution in HBSS (4× EC80 concentration) are added to each well of the cell assay plate except those cells reserved as blank wells containing buffer only. Intracellular calcium flux is recorded on the HAMAMTSU FDSS6000, using excitation at 480 nm and emission at 540 nm. Data are analyzed using Activity Base software.
In general, the preferred potency range (IC50) of compounds in the above assay is between 1 nM to 3 μM, and the most preferred potency range is 1 nM to 20 nM.

Sequence of CXCR3 (A0A2K5UV19 entry or part of it): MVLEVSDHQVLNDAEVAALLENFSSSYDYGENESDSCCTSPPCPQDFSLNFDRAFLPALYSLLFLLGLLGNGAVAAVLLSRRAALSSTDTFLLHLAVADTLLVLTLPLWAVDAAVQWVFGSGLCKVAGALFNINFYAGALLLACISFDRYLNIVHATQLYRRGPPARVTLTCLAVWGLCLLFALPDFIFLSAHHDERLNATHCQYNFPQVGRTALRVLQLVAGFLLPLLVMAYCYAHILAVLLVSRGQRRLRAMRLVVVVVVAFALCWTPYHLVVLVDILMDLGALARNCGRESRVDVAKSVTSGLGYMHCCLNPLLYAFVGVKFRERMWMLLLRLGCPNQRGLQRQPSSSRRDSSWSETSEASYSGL

| IC50 [nM] | SMILES |
| --- | --- |
| 9.8 | COc1ccc2nc(NC(=O)c3ccccc3N3CCN(C(=O)Cn4nc(C)cc4C)CC3)sc2c1 [2-{4-[2-(3,5-Dimethyl-pyrazol-1-yl)-acetyl]-piperazin-1-yl}-N-(6-methoxy-benzothiazol-2-yl)-benzamide] |
| 7.6 | Cc1cc(C)n(CC(=O)N2CCN(c3ccccc3NC(=O)c3ccncc3)CC2)n1 [N-(2-{4-[2-(3,5-Dimethyl-pyrazol-1-yl)-acetyl]-piperazin-1-yl}-phenyl)-isonicotinamide] |
| 7.7 | O=C(Nc1cc(Cl)cnc1N1CCN(C(=O)CN2CCCCC2=O)CC1)c1cccc(Cl)c1 [3-Chloro-N-(5-chloro-2-{4-[2-(2-oxo-piperidin-1-yl)-acetyl]-piperazin-1-yl}-pyridin-3-yl)-benzamide] |
| 7.2 | Cc1cc(C)n(CC(=O)N2CCN(c3ccccc3C(=O)Nc3ccc(Cl)nc3)CC2)n1 [N-(6-Chloro-pyridin-3-yl)-2-{4-[2-(3,5-dimethyl-pyrazol-1-yl)-acetyl]-piperazin-1-yl}-benzamide] |
| 14 | O=C(Nc1ccncc1)c1ccccc1N1CCN(C(=O)Cc2cccc3cccnc23)CC1 [N-Pyridin-4-yl-2-[4-(2-quinolin-8-yl-acetyl)-piperazin-1-yl]-benzamide] |
| 13 | Cc1cc(C)n(CC(=O)N2CCN(c3ccccc3C(=O)Nc3nccs3)CC2)n1 [2-{4-[2-(3,5-Dimethyl-pyrazol-1-yl)-acetyl]-piperazin-1-yl}-N-thiazol-2-yl-benzamide] |
| 16 | COc1ccc(C(=O)NCC(=O)N2CCN(c3ccccc3C(=O)Nc3cccnc3)CC2)cc1 [4-Methoxy-N-(2-oxo-2-{4-[2-(pyridin-3-ylcarbamoyl)-phenyl]-piperazin-1-yl}-ethyl)-benzamide] |
| 4.2 | Cc1cc(C)n(CC(=O)N2CCN(c3ccccc3NC(=O)c3cccc(Cl)c3)CC2)n1 [3-Chloro-N-(2-{4-[2-(3,5-dimethyl-pyrazol-1-yl)-acetyl]-piperazin-1-yl}-phenyl)-benzamide] |
| 15 | COc1ccc(C(=O)N(C)CC(=O)N2CCN(c3ccccc3C(=O)Nc3ccncc3)CC2)cc1F [3-Fluoro-4-methoxy-N-methyl-N-(2-oxo-2-{4-[2-(pyridin-4-ylcarbamoyl)-phenyl]-piperazin-1-yl}-ethyl)-benzamide] |
| 6.5 | CN(CC(=O)N1CCN(c2ccccc2C(=O)Nc2ccncc2)CC1)C(=O)c1cccn1C [1-Methyl-1H-pyrrole-2-carboxylic acid methyl-(2-oxo-2-{4-[2-(pyridin-4-ylcarbamoyl)-phenyl]-piperazin-1-yl}-ethyl)-amide] |
| 5.5 | COc1cc(NC(=O)c2ccccc2N2CCN(C(=O)CN(C)C(=O)c3ncoc3C)CC2)ccn1 [5-Methyl-oxazole-4-carboxylic acid (2-{4-[2-(2-methoxy-pyridin-4-ylcarbamoyl)-phenyl]-piperazin-1-yl}-2-oxo-ethyl)-methyl-amide] |
| 11 | Cc1cc(C)n(CC(=O)N2CCN(c3ccccc3C(=O)Nc3ccc(C(F)(F)F)nc3)CC2)n1 [2-{4-[2-(3,5-Dimethyl-pyrazol-1-yl)-acetyl]-piperazin-1-yl}-N-(6-trifluoromethyl-pyridin-3-yl)-benzamide] |
| 7.4 | Cc1cc(C)n(CC(=O)N2CCN(c3ccccc3NC(=O)c3cccc(C(F)(F)F)c3)CC2)n1 [N-(2-{4-[2-(3,5-Dimethyl-pyrazol-1-yl)-acetyl]-piperazin-1-yl}-phenyl)-3-trifluoromethyl-benzamide] |
| 9.7 | Cc1cc(C)n(CC(=O)N2CCN(c3ccccc3C(=O)Nc3nnc(C(C)(C)C)s3)CC2)n1 [N-(5-tert-Butyl-[1,3,4]thiadiazol-2-yl)-2-{4-[2-(3,5-dimethyl-pyrazol-1-yl)-acetyl]-piperazin-1-yl}-benzamide] |
| 8.4 | CN(CC(=O)N1CCN(c2ccccc2C(=O)Nc2ccncc2)CC1)C(=O)c1ccccc1 [2-{4-[2-(Benzoyl-methyl-amino)-acetyl]-piperazin-1-yl}-N-pyridin-4-yl-benzamide] |
